# Marks after values point to notes of the source that are not given here.
# Target: T1, N-acetylgalactosamine-6-sulfatase (GALNS) (Homo sapiens, UniProt P34059)
# T1 construct: Isolated leukocytes were disrupted by sonication; from tissue; host or cells: human leukocytes from healthy donors (sonicated homogenate)
# T1 sequence (P34059 27-522): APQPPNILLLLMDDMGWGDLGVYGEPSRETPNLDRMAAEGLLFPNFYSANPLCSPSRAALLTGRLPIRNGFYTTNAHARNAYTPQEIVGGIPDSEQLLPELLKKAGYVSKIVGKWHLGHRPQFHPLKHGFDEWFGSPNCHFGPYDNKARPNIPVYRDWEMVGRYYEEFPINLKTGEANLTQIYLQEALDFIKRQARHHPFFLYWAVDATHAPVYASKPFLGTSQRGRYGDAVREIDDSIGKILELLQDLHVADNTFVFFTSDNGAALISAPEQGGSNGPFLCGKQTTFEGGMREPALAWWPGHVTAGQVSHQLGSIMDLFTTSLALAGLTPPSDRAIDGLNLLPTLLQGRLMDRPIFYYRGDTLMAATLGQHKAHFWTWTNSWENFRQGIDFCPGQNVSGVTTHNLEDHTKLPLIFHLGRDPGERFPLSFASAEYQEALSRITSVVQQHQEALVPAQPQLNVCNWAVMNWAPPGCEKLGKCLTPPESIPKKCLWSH
# Experiment: GALNS inhibition in leukocyte homogenate from healthy donors (4-methylumbelliferyl-β-galactoside-6-sulfate substrate, fluorescence)
# Format: biochemical
# Experimental: A preliminary biological screening of the newly synthesized multivalent compounds at 1 mM inhibitor concentration was performed against GALNS in leukocytes isolated from healthy donors. Enzymatic assays were performed in triplicate by incubating leukocyte homogenate, compound, and substrate (4-methylumbelliferyl-β-galactoside-6-sulfate.Na) in Na-acetate/acetic acid buffer (pH 4.3) at 37 °C for 17 h, followed by the addition of β-galactosidase from Aspergillus oryzae and further incubation to release 4-methylumbelliferone. The fluorescence was measured, and the inhibition percentages were calculated relative to the control. The results are summarized in Table 1, Table 2, Table 3 and Table 4, along with new inhibition data toward GALNS of multivalent inhibitors whose synthesis was reported previously by our group (23, 26, 30, 51, 52–54). For compounds showing poor to negligible inhibitory activity, only the GALNS inhibition percentage at 1 mM was reported.
# Enzymatic assays towards human GALNS in leukocytes isolated from healthy donors.
# All experiments on biological materials were performed in accordance with the ethical standards of the institutional research committee and with the 1964 Helsinki Declaration and its later amendments. In keeping with ethical guidelines, all blood and cell samples were obtained for storage and analysed only after written informed consent of the patients (and/or their family members) was obtained, using a form approved by the local Ethics Committee (Assigned code: Lysolate “Late -onset Lysosomal Storage Disorders (LSDs) in the differential diagnosis of neurodegenerative diseases: development of new diagnostic procedures and focus on potential pharmacological chaperones (PCs).” Project ID code: 16774_bio, 5 May 2020, Comitato Etico Regionale per la Sperimentazione Clinica della Regione Toscana, Area Vasta Centro, Florence, Italy). Control and patient samples were anonymized and used only for research purposes.
# A preliminary biological screening of compounds at 1 mM was performed towards GALNS in leukocytes isolated from healthy donors (controls). Isolated leukocytes were disrupted by sonication, and a micro BCA protein assay kit (Sigma–Aldrich) was used to determine the total protein amount for the enzymatic assay, according to the manufacturer instructions. Enzyme activity was measured by setting the reaction in 0.2 mL tubes and performing the experiments in triplicates as follows. Compound solution (3 µL), 4.29 μg/μL leukocyte homogenate 1:5 (7 μL) and 20 µL of 4-methylumbelliferyl-β-galactoside-6-sulfate.Na substrate solution (6.66mM) in Na-Acetate/acetic acid buffer (0.1 M/0.1 M, pH 4.3) containing 0.1 M NaCl, 0.02% (w/v) NaN3 and 5 mM Pb-acetate were incubated for 17 h at 37 °C. After step one, the tubes were placed on an ice cooler and the reaction was stopped by addition of 5 µL of Na-phosphate buffer (0.9 M, pH 4.3) containing 0.02 % (w/v) of NaN3 and by efficient mixing with vortex. Then, 10 µL of β-galactosidase from Aspergillus oryzae (β-Gal-A-10U) were added to each sample and samples were incubated for 2 h at 37°C. At the end of this period the tubes were placed on an ice cooler and the samples were transferred in a cooled flat –bottomed 96 well plate and the reaction was immediately stopped with 2 00 µL of NaHCO3/Na2CO3 buffer (0.5 M/0.5 M pH 10.7) containing 0.025% (w/v) of Triton X -100. Fluorescence was measured in a SpectraMax M2 microplate reader (Molecular-Devices) using a 365 nm excitation wavelength and a 435 nm emission wavelength. Percentage of GALNS inhibition was given with respect to the control (without compound).
# Experiments were performed in triplicate, and the mean ± S. D. was calculated.
# Figure S52. GALNS activity in the absence Figure S53. GALNS activity in the absence (Ctrl) and presence of scaffold 12 at a 1 mM (Ctrl) and presence of the new multivalent […]
# The corresponding calculated inhibition of the main text) at a 1 mM concentration in […]
# [1] = calculated considering 34 as the monovalent reference compound
rp (relative potency) [1],rp (relative potency) (calculated with respect to the scaffold 38),IC50 (human leukocyte extracts),SMILES
83,1.5,–,O=C(NC(COCc1cn(CCCCCCN2CC(O)C(O)C2CO)nn1)(COCc1cn(CCCCCCN2CC(O)C(O)C2CO)nn1)COCc1cn(CCCCCCN2CC(O)C(O)C2CO)nn1)c1cc(C(=O)NC(COCc2cn(CCCCCCN3CC(O)C(O)C3CO)nn2)(COCc2cn(CCCCCCN3CC(O)C(O)C3CO)nn2)COCc2cn(CCCCCCN3CC(O)C(O)C3CO)nn2)cc(C(=O)NC(COCc2cn(CCCCCCN3CC(O)C(O)C3CO)nn2)(COCc2cn(CCCCCCN3CC(O)C(O)C3CO)nn2)COCc2cn(CCCCCCN3CC(O)C(O)C3CO)nn2)c1 (stereo not shown) [Compound 1]
139 ^[b],–,28 ± 5 µM,OCC1C(O)C(O)CN1CCCCCCn1cc(COCC(COCc2cn(CCCCCCN3CC(O)C(O)C3CO)nn2)(COCc2cn(CCCCCCN3CC(O)C(O)C3CO)nn2)NCc2cc(CNC(COCc3cn(CCCCCCN4CC(O)C(O)C4CO)nn3)(COCc3cn(CCCCCCN4CC(O)C(O)C4CO)nn3)COCc3cn(CCCCCCN4CC(O)C(O)C4CO)nn3)cc(CNC(COCc3cn(CCCCCCN4CC(O)C(O)C4CO)nn3)(COCc3cn(CCCCCCN4CC(O)C(O)C4CO)nn3)COCc3cn(CCCCCCN4CC(O)C(O)C4CO)nn3)c2)nn1 (stereo not shown) [Compound 36]

# Source: PMC12113998, “Exploring Multivalent Architectures for Binding and Stabilization of N-Acetylgalactosamine 6-Sulfatase” (Molecules, 2025)
